8 molecules from patent publication US11076595B2, “1-(n,n-disubstituted carbamoyl) 4-(substituted sulfonyl)triazolin-5-one derivative, 4-(n,n-disubstituted carbamoyl) 1-(substituted sulfonyl)triazolin-5-one derivative, and herbicide containing said derivative as active ingredient” (HOKKO CHEMICAL INDUSTRY CO., LTD., priority 2017, dated 2021) can be followed below.

What all share (format): in vivo
For assay [1], the system named is Echinochloa crus-galli. The assay can be described thus: Test Example 14: herbicidal effect test by foliage treatment in upland field. The following applies: 7 days after sowing, 120 g/10a, 14 days after treatment. The method in brief:
(§1)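 Emulsifiable concentrate, water-diluted, is applied post-emergence to 7-day-old sowings in field soil at 120 g active ingredient per 10 are. The weed suppression rate derives from average dry weights versus untreated controls, measured 14 days later.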

The test system of assay [2] is Amaranthus viridis. The description is as above. The note with it: 7 days after sowing, 120 g/10a, 14 days after treatment. The method in brief:
as §1

The test system of assay [3] is Echinochloa crus-galli. The assay can be described thus: Test Example 13: herbicidal effect test by soil treatment in upland field. The note with it: 120 g/10a, 14 days after treatment. The method in brief: (§2)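 Pre-emergence soil treatment: alluvial soil pots (36 cm^2) sown with 20 seeds per weed species, sprayed one day later with water-diluted emulsifiable concentrate at 100 liter per 10 are, equal to 120 g active ingredient per 10 are. Two replicates; weed suppression (%) from dry weight versus untreated plots at 14 days.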

The test system of assay [4] is crabgrass. The assay is described as above. The following applies: 120 g/10a, 14 days after treatment. The method in brief: as §2
The subject of assay [5] is Amaranthus viridis. The description is as above. The following applies: 120 g/10a, 14 days after treatment. The method in brief: as §2
The test system of assay [6] is Chenopodium album. The description is as above. The following applies: 120 g/10a, 14 days after treatment. The method in brief: as §2
In assay [7] the test system is Echinochloa crus-galli. The assay can be described thus: Test Example 11: herbicidal effect test by soil treatment in paddy field. The following applies: 120 g/10a active ingredient, 14 days after treatment. The method in brief: (§3)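 Seeds were sown 0-1 cm deep in puddled, fertilised paddy soil in Wagner pots and kept under about 3 cm of flooding in a greenhouse. Diluted emulsifiable concentrate was added dropwise right after sowing at 120 g a.i. per 10 are. Suppression (%) came from dry weight versus untreated pots after 14 days, two replicates.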

The test system of assay [8] is Scirpus juncoides. The description is as above. The note with it: 120 g/10a active ingredient, 14 days after treatment. The method in brief:
as §3

In assay [9] the test system is Monochoria vaginalis. Described as above. The note with it: 120 g/10a active ingredient, 14 days after treatment. The method in brief:
as §3

For assay [10], the system named is Lindernia pyxidaria. The assay is described as above. The note with it: 120 g/10a active ingredient, 14 days after treatment. The method in brief: as §3
In assay [11] the test system is crabgrass. The assay can be described thus: Test Example 14: herbicidal effect test by foliage treatment in upland field. The following applies: 7 days after sowing, 120 g/10a, 14 days after treatment. The method in brief:
as §1

The test system of assay [12] is Chenopodium album. Described as above. The following applies: 7 days after sowing, 120 g/10a, 14 days after treatment. The method in brief: as §1
The subject of assay [13] is Echinochloa crus-galli. The assay can be described thus: Test Example 12: herbicidal effect test by treatment during growing period in paddy field. The following applies: 120 g/10a; treatment seven days after sowing in flooded paddy pot; assessed 14 days after treatment. The method in brief: (§4)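 Puddled paddy soil in Wagner pots, 30 seeds per species sown 0-1 cm deep, flooded to about 3 cm in a greenhouse. Seven days after sowing, water-diluted emulsifiable concentrate was dripped in at 120 g active ingredient per 10 are. Suppression (%) from dry weight versus untreated at 14 days, two replicates.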

Assay [14] has as its system Scirpus juncoides. The description is as above. The following applies: 120 g/10a; treatment seven days after sowing in flooded paddy pot; assessed 14 days after treatment. The method in brief:
as §4

For assay [15], the system named is Monochoria vaginalis. The description is as above. The following applies: 120 g/10a; treatment seven days after sowing in flooded paddy pot; assessed 14 days after treatment. The method in brief:
as §4

Assay [16] concerns Lindernia pyxidaria. Described as above. The following applies: 120 g/10a; treatment seven days after sowing in flooded paddy pot; assessed 14 days after treatment. The method in brief: as §4

With `CC(C)N(C(=O)n1cnn(S(=O)(=O)C2CC2)c1=O)c1c(F)cccc1F` [Compound 11-191], the “herbicidal effect, Echinochloa crus-galli” value in assay [1] and in [3] was 100% throughout. Moreover, the “herbicidal effect, Amaranthus viridis” value in assay [2] stood at 60%; in assay [5], 70%. In addition, the “herbicidal effect, Crabgrass” value in [4] and in [11] was 100% each time. In addition, the “herbicidal effect, Chenopodium album” value amounted to 70% in assay [6] and 60% in [12]. Further, the “Weed suppression rate (%) Echinochloa crus-galli” value in [7] and in assay [13] was 100% throughout. The “Weed suppression rate (%) Scirpus juncoides” value came out at 100% in [8] and 90% in assay [14]. Moreover, the “Weed suppression rate (%) Monochoria vaginalis” value in assay [9] and in assay [15] was 90% each time. Further, the entries for the “Weed suppression rate (%) Lindemia pyxidaria” value in assay [10] and in assay [16] were 100% and 90%, respectively.

For `CC(C)N(C(=O)n1cnn(S(C)(=O)=O)c1=O)c1c(F)cccc1F` [Compound 11-14], the “herbicidal effect, Echinochloa crus-galli” value in assay [1] and in [3] was 100% in each case. The “herbicidal effect, Amaranthus viridis” value in [2] is recorded as 30%; in assay [5], 70%. For the same molecule, the “herbicidal effect, Crabgrass” value in assay [4] and in [11] was 100% in each case. Also, the “herbicidal effect, Chenopodium album” value worked out at 60% in [6] and 30% in assay [12]. Besides, the “Weed suppression rate (%) Echinochloa crus-galli” value in [7] and in [13] was 100% throughout. Besides, the “Weed suppression rate (%) Scirpus juncoides” value was found to be 90% in assay [8] and 100% in [14]. Besides, the “Weed suppression rate (%) Monochoria vaginalis” value in [9] and in [15] was 80% throughout. The “Weed suppression rate (%) Lindemia pyxidaria” value in assay [10] is recorded as 100%; in [16], 80%.

For the molecule `CCS(=O)(=O)n1ncn(C(=O)N(c2c(F)cccc2F)C(C)C)c1=O` [Compound 11-1150], the “herbicidal effect, Echinochloa crus-galli” value in [1] and in assay [3] was 100% in each case. The results for the “herbicidal effect, Amaranthus viridis” value in assay [2] and in [5] were 50% and 90%, respectively. Moreover, the “herbicidal effect, Crabgrass” value in assay [4] and in assay [11] was 100% in each case. Further, the “herbicidal effect, Chenopodium album” value in assay [6] is given as 80%; in assay [12], 60%. In addition, the “Weed suppression rate (%) Echinochloa crus-galli” value in assay [7] and in assay [13] was 100% throughout. Further, the “Weed suppression rate (%) Scirpus juncoides” value in assay [8] was determined as 90%; in assay [14] it was 60%. In addition, the “Weed suppression rate (%) Monochoria vaginalis” value in assay [9] is reported as 70%; in assay [15] it was 90%. In addition, the “Weed suppression rate (%) Lindemia pyxidaria” value in assay [10] and in [16] was 100% each time.

For `CCS(=O)(=O)n1ncn(C(=O)N(c2cccc(F)c2F)C(C)C)c1=O` [Compound 11-1148], the “herbicidal effect, Echinochloa crus-galli” value in [1] and in [3] was 100% throughout. In addition, the “herbicidal effect, Amaranthus viridis” value in assay [2] was found to be 70%; in assay [5], 100%. Besides, the “herbicidal effect, Crabgrass” value in assay [4] and in [11] was 100% throughout. Further, the “herbicidal effect, Chenopodium album” value is 90% in [6] and 80% in assay [12]. Moreover, the “Weed suppression rate (%) Echinochloa crus-galli” value in [7] and in assay [13] was 100% each time. Besides, the “Weed suppression rate (%) Scirpus juncoides” value in [8] and in assay [14] was 100% in each case. In addition, the “Weed suppression rate (%) Monochoria vaginalis” value in assay [9] and in [15] was 90% throughout. Besides, the “Weed suppression rate (%) Lindemia pyxidaria” value in assay [10] is given as 100%; in assay [16], 90%.

`Cc1ccc(N(C(=O)n2cnn(S(=O)(=O)C(C)C)c2=O)C(C)C)c(F)c1` [Compound 11-73]: the “herbicidal effect, Echinochloa crus-galli” value in [1] and in assay [3] was 80% throughout. Also, the “herbicidal effect, Amaranthus viridis” value in assay [2] and in [5] was 90% in each case. Also, the “herbicidal effect, Crabgrass” value in assay [4] and in assay [11] was 90% in each case. The “herbicidal effect, Chenopodium album” value in assay [6] and in assay [12] was 80% each time. The “Weed suppression rate (%) Echinochloa crus-galli” value in assay [7] and in [13] was 90% each time. For the same molecule, the “Weed suppression rate (%) Scirpus juncoides” value in assay [8] and in [14] was 90% each time. Also, the “Weed suppression rate (%) Monochoria vaginalis” value in [9] and in assay [15] was 80% each time. In addition, the “Weed suppression rate (%) Lindemia pyxidaria” value in [10] and in assay [16] was 80% each time.

Take `CC(C)N(C(=O)n1cnn(S(=O)(=O)C2CC2)c1=O)c1ccc(F)c(F)c1F` [Compound 11-194]: the “herbicidal effect, Echinochloa crus-galli” value in assay [1] was determined as 100%; in assay [3], 90%. In addition, the “herbicidal effect, Amaranthus viridis” value in [2] amounted to 90%; in assay [5], 100%. The “herbicidal effect, Crabgrass” value is on record as 90% in [4] and 100% in assay [11]. Moreover, the “herbicidal effect, Chenopodium album” value in [6] was determined as 70%; in [12], 80%. For the same molecule, the “Weed suppression rate (%) Echinochloa crus-galli” value in assay [7] and in assay [13] was 100% throughout. In addition, the “Weed suppression rate (%) Scirpus juncoides” value in assay [8] and in assay [14] was 100% throughout. In addition, the “Weed suppression rate (%) Monochoria vaginalis” value in [9] and in [15] was 100% each time. Moreover, the “Weed suppression rate (%) Lindemia pyxidaria” value in assay [10] and in assay [16] was 100% throughout.

Regarding `CCc1ccc(S(=O)(=O)n2ncn(C(=O)N(c3ccc(F)cc3F)C(C)C)c2=O)cc1` [Compound 11-666], the figures for the “herbicidal effect, Echinochloa crus-galli” value in assay [1] and in [3] were 90% and 100%, respectively. Further, the “herbicidal effect, Amaranthus viridis” value in assay [2] and in assay [5] was 40% throughout. In addition, the “herbicidal effect, Crabgrass” value in assay [4] and in [11] was 90% in each case. Besides, the “herbicidal effect, Chenopodium album” value in assay [6] amounted to 100%; in assay [12] it was 40%. Moreover, the “Weed suppression rate (%) Echinochloa crus-galli” value in assay [7] and in assay [13] was 100% each time. For the same molecule, the “Weed suppression rate (%) Scirpus juncoides” value in assay [8] and in [14] was 90% throughout. The “Weed suppression rate (%) Monochoria vaginalis” value in assay [9] and in assay [15] was 90% in each case. For the same molecule, the “Weed suppression rate (%) Lindemia pyxidaria” value in [10] and in assay [16] was 90% throughout.

For `Cc1cc(C)c(S(=O)(=O)n2ncn(C(=O)N(c3ccccc3)C(C)C)c2=O)c(C)c1` [Compound 11-852], the “herbicidal effect, Echinochloa crus-galli” value was determined as 60% in assay [1] and 80% in assay [3]. In addition, the “herbicidal effect, Amaranthus viridis” value in [2] and in assay [5] was 60% in each case. For the same molecule, the “herbicidal effect, Crabgrass” value is recorded as 80% in [4] and 90% in assay [11]. Moreover, the “herbicidal effect, Chenopodium album” value in assay [6] turned out to be 60%; in assay [12] it was 70%. Also, the entries for the “Weed suppression rate (%) Echinochloa crus-galli” value in [7] and in [13] were 100% and 80%, respectively. Further, the “Weed suppression rate (%) Scirpus juncoides” value in assay [8] and in assay [14] was 90% throughout. Moreover, the “Weed suppression rate (%) Monochoria vaginalis” value in [9] and in [15] was 90% each time. In addition, the “Weed suppression rate (%) Lindemia pyxidaria” value in [10] and in [16] was 90% throughout.
